Measured values published in article PMC7176092, “Development of the first in vivo GPR17 ligand through an iterative drug discovery pipeline: A novel disease-modifying strategy for multiple sclerosis” (PLoS ONE, 2020).
“And” between values parts separate entries of the source, which are not always exact repeats. Equal entries are not always repeated. Where two headings read alike, the source gives them in different places.

Legend:
AT1 = molecular target: T1, AT1 (Homo sapiens, UniProt P30556); experiment: Binding assay AT1; details: 100 nM
T1 construct: Eurofins Cerep (external service)
T1 sequence (P30556 1-359): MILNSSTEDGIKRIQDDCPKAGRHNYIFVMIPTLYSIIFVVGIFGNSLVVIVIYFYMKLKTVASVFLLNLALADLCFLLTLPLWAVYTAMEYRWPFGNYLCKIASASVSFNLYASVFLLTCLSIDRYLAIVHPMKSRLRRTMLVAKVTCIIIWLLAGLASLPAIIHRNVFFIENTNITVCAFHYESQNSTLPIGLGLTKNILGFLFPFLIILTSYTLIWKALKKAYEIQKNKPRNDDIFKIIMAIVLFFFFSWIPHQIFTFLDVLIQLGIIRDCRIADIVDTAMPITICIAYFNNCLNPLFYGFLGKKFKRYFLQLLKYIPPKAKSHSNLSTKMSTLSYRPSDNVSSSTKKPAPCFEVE

CCR1 = molecular target: T2, CCR1 (Homo sapiens, UniProt P32246); experiment: Binding assay CCR1; details: 100 nM
T2 construct: Eurofins Cerep (external service)
T2 sequence (P32246 1-355): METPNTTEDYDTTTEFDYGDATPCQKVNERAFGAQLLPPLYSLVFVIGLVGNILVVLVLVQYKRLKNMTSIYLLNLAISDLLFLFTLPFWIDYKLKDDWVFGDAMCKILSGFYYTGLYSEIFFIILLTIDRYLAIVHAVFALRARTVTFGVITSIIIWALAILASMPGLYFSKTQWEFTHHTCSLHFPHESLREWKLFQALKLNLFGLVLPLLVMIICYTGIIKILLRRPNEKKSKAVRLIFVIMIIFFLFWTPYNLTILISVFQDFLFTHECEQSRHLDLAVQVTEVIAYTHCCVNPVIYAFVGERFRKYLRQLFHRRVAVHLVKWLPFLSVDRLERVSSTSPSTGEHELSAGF

[1] = In vivo mouse DMPK study, single 1 mg/kg subcutaneous dose
Method: In vivo DMPK studies were performed as an external service by Aptuit (Verona, Italy) according to standard procedures.
Two compounds were tested in a single dose pharmacokinetic (PK) study in mouse, in which a 1 mg/kg single dose solution (15% Ethanol, 85% PEG400) was administered by subcutaneous injection to naïve CD1 male mice from accredited supplier (n = 3), weighed prior to dosing. Blood samples were collected for 8 time-points (0.25, 0.50, 1, 2, 4, 6, 8, 24 hours).
Plasma samples were prepared and diluted according standard in-house procedures and stored at approximately -20°C, pending analysis. Briefly, blood samples were collected into tubes containing anticoagulant (K3EDTA), stored on ice and centrifuged to prepare plasma within 2 hours of collection. Plasma samples were diluted in Hepes Buffer and deproteinised using CH3CN containing rolipram as internal reference compound for positive ion mode, according standard procedure (20 ng/ml). After vortexing and centrifugation (3000 rpm per 10 min), sample supernatants were transferred in 96 well plate and diluted with water for analysis.
Blood concentrations of the tested compounds and their metabolites were detected through Liquid Chromatography-tandem Mass Spectrometry (QTRAP® 4000 LC-MS/MS System, Sciex). The results for each test compound in plasma were subjected to non-compartmental PK analysis using WinNonlin Phoenix v.6.3 for generation of appropriate PK parameters, reported along with graphical representation of the mean plasma concentration profiles over time.
At 24 hours, animals were sacrificed, and brains were collected and processed for measuring compound concentrations through mass spectrometry.

ADR2C = molecular target: T3, ADR2C (Homo sapiens, UniProt P18825); experiment: Binding assay ADR2C; details: 100 nM
T3 construct: Eurofins Cerep (external service)
T3 sequence (P18825 1-462): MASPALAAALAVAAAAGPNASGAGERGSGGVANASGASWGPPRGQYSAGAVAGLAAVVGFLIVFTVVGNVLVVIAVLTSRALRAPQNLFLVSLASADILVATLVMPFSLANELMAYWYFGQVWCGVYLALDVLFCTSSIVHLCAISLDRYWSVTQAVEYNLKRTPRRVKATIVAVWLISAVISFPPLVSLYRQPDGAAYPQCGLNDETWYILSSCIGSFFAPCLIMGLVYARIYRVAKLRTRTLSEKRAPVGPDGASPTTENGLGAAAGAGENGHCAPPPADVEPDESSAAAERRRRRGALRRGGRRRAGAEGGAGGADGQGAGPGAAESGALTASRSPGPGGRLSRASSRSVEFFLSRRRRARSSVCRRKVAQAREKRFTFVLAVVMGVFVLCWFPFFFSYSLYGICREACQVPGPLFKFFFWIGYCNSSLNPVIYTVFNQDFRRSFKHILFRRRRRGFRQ

[2] = Single dose time course study in plasma and brain, 10 mg/kg subcutaneous; assay type: in vivo, mouse; details: 10 mg/kg s.c. single dose, C57BL/6 male mice
Method: Afterwards, the presence of the top compound in the brain was assessed in a single dose time course study consisting of a subcutaneous administration of a 10 mg/kg dose (15% Ethanol, 85% PEG400) to 24 naïve C57BL/6 male mice. Eight time-points (n = 3/time-point) were drawn over 24 hours after dosing. Each animal was sampled for blood collection at two time-points (the first via a tail vein, the second via cardiac puncture under anaesthesia). Blood samples were collected and centrifuged to prepare plasma according to standard procedures and stored at approximately -20°C, pending analysis (n = 48 samples). The brain of each animal was collected at sacrifice and analysed alongside plasma samples for compound quantification (n = 24 samples). Plasma and brain homogenate samples were analysed for test compound quantification using an optimised method based on protein precipitation followed by HPLC-MS/MS analysis. The results for test substance in plasma and brain homogenates were subjected to non-compartmental PK analysis using WinNonlin Phoenix v.6.3 for generation of appropriate pharmacokinetic parameters to be reported along with graphical representation of the mean plasma concentration profiles over time.

P2Y = experiment: Binding assay P2Y; parameters: species or system human; details: 100 nM
[3] = mean of 2, read-out: % Of control specific binding, Mean
[4] = read-out: % Inhibition of control specific binding
[5] = single replicates 1 and 2, 0.1 µM
[6] = single replicates 1 and 2, read-out: % Of control specific binding
[7] = mouse, sc, plasma, 1 mg/kg s.c. single dose, CD1 male mice

## Cc1ccc(-c2nnc(SCC(=O)Nc3nccs3)[nH]2)cc1 [Compound 9]
AT1; [3]
  remaining activity at 0.1 µM: 110%
AT1; [4]
  inhibition at 0.1 µM: -10%
AT1; [5]
  % Of control specific binding: 108.6%
AT1; [6]
  remaining activity at 0.1 µM: 112%
CCR1; [3]
  remaining activity at 0.1 µM: 108%
CCR1; [4]
  inhibition at 0.1 µM: -8%
CCR1; [5]
  % Of control specific binding: 109%
CCR1; [6]
  remaining activity at 0.1 µM: 108%
[1]; 0.50 h, 1 mg/kg s.c., 1 mg/kg
  Plasma concentration, individual mice: 71.7 ng/mL and 98.3 ng/mL and 30.8 ng/mL
[1]; 1.00 h, 1 mg/kg s.c., 1 mg/kg
  Plasma concentration, individual mice: 14.3 ng/mL and 38.5 ng/mL and 76.3 ng/mL
[1]; 2.00 h, 1 mg/kg s.c., 1 mg/kg
  Plasma concentration, individual mice: 5.6 ng/mL and 10.3 ng/mL and 29.8 ng/mL
[1]; 4.00 h, 1 mg/kg s.c., 1 mg/kg
  Plasma concentration, individual mice: 2.6 ng/mL
[1]; male, CD1, mouse, plasma, sc, 1 mg/kg, 0.50 h, 1 mg/kg s.c., n=3 mice, read-out: Plasma concentration, Mean
  concentration at 0.5 h: 66.9 ng/mL
[1]; male, CD1, mouse, plasma, sc, 1 mg/kg, 1.00 h, 1 mg/kg s.c., n=3 mice, read-out: Plasma concentration, Mean
  concentration at 1 h: 43 ng/mL
[1]; male, CD1, mouse, plasma, sc, 1 mg/kg, 2.00 h, 1 mg/kg s.c., n=3 mice
  concentration at 2 h: 15.2 ng/mL
[1]; male, CD1, mouse, plasma, sc, 1 mg/kg, 4.00 h, 1 mg/kg s.c., read-out: Plasma concentration, Mean
  concentration at 4 h: 2.8 ng/mL
[1]; male, CD1, mouse, plasma, sc, 1 mg/kg, 4.00 h, 1 mg/kg s.c., read-out: Plasma concentration, individual mice
  concentration at 4 h: 2.9 ng/mL
[1]; male, CD1, mouse, plasma, sc, 1 mg/kg, plasma, 1 mg/kg s.c. single dose, CD1 male mice, read-out: Clast
  concentration at 4 h: 4.81 ng/mL
[1]; [7]
  AUC(0-t): 85.8 ng·h/mL
  Cmax: 72.3 ng/mL
  Tmax: 30 min
  half-life: 65.4 min
[1]; plasma after s.c. administration in mice
  Metabolites found in vivo: no detectable metabolites
[1]; plasma, 1 mg/kg s.c. single dose, CD1 male mice
  Tlast: 4.00 h
ADR2C; [3]
  remaining activity at 0.1 µM: 109%
ADR2C; [4]
  inhibition at 0.1 µM: -9%
ADR2C; [5]
  % Of control specific binding: 108.4%
ADR2C; [6]
  remaining activity at 0.1 µM: 109%
[2]; brain
  Tlast: 6.00 h
[2]; mouse, sc, brain
  AUC(0-t): 205 ng·h/mL
  Cmax: 270 ng/mL
  Tmax: 15 min
[2]; mouse, sc, brain, read-out: Clast
  concentration at 6 h: 5.8 ng/mL
[2]; mouse, sc, plasma
  AUC(0-t): 3930 ng·h/mL
  Cmax: 6520 ng/mL
  Tmax: 15 min
[2]; mouse, sc, plasma, read-out: Clast
  concentration at 8 h: 17.4 ng/mL
[2]; plasma
  Tlast: 8.00 h
P2Y
  % Inhibition of control specific binding: -28%
P2Y; mean of 2
  % Of control specific binding, Mean: 128.2%
P2Y; [5]
  % Of control specific binding: 120.7% and 135.7%
